Source: US7816409B2, “Stable pharmaceutical composition of fluoroether compound for anesthetic use method for stabilizing a fluoroether compound, use of stabilizer agent for precluding the degradation of a fluoroether compound” (Cristalia Productos Quimicos Farmaceuticos LTDA, priority 2003, dated 2010)
One block for each compound: values may come before it.

Key:
[1] = Chromatographic purity and impurities of sevoflurane after stress with alumina (Pharmacopeial Forum USP specifications); assay type: physicochemical; conditions: for degradation of sevoflurane by alumina: Example 5, 260 ppm stabilizer
Method: (§1) In this study alumina was employed in a final concentration of 1 mg per mL of sevoflurane.
(§2) Alumina was employed in a final concentration of 1 mg per mL of sevoflurane.

[2] = Limit of fluoride in sevoflurane after stress with alumina; assay type: physicochemical
Method: as §1
Another important factor observed in the present study is the quantity of fluoride in the sample submitted to stress.
as §2

[3] = Stress degradation of sevoflurane with or without alumina, gas chromatography with toluene internal standard; assay type: physicochemical
Method: In the following examples, all analyses by gas chromatography were carried out by adding 2 μL of toluene (internal standard) in 10 mL of sample of sevoflurane in study. The analysis was done in duplicates and for each chromatogram obtained was calculated the ratio of the area of each impurity/area of toluene.
In two type III glass bottle with capacity of 100 mL, was added 20 mL of anhydrous sevoflurane and in one of the bottles was added 20 mg of alumina totalizing 1.0 mg of Al2O3 per mL of sevoflurane. Both bottles were closed with a stopper and screw metallic cap and heated in a stove at 60° C. for 22 hours. After that period, the samples were analyzed in duplicates by gas chromatography using the internal standard addition method (toluene). […] The degradation products of sevoflurane monitored by gas chromatography, HFIP, Acetal, 2, 5, 7 and 8, are present in high amounts in the samples of sevoflurane containing alumina after heating, as presented in FIG. 4.
The samples were prepared and placed in type III glass bottle and the bottles were closed with stopper and screw metallic cap.
The samples were submitted to two stress conditions by heating in stove at 60° C. for a cycle of 22 hours and other of 72 hours.
The sample was prepared to contain 0, 50, 200, 600, 1000 and 1400 ppm of the stabilizer agent. […] The study comprises put sevoflurane in contact with an acid substance, submits the samples to a stress by heating at 60° C. for 22 hours and, by comparison evaluates the chromatographic purity of sevoflurane after stress. The activated alumina was employed as acid substance in a constant quantity of 1 mg per mL of sevoflurane.
In type III glass bottle with capacity for 100 mL was transferred 20 mL of test sevoflurane containing determined quantities of the stabilizer agent (0, 50, 200, 600, 1000 and 1400 ppm) and 20 mg of alumina. The bottles were immediately closed with a stopper and a screw metallic cap. These bottles were heated in a stove at 60° C. for 22 hours. After the stress the samples were analyzed in duplicate by gas chromatography using the internal standard addition method (toluene). In parallel, studies were done with the quantity determined of the stabilizer (0, 50, 200, 600, 1000 and 1400 ppm) without alumina.
Table 2 resumes the tests realized with the agents propylene glycol and menthol proposed for the stabilization of sevoflurane against the degradation by alumina and the results for total impurity and for the single impurity HFIP obtained with and without alumina after stress at 60° C. for 22 hours. The total impurity is the sum of the ratio between the area for each impurity and the area of the internal standard (toluene) and HFIP is the ratio between the area of HFIP and the area of toluene obtained in the chromatograms.

[4] = Saturation level / solubility of stabilizer in sevoflurane
Excerpt: The stabilizer agent for the fluoroether compound, and most particularly for the sevoflurane, is employed in concentration ranging from 0.001% in weight in relation to the weight of sevoflurane until its level of saturation in the sevoflurane, that is, the maximum concentration in which it keeps soluble in the sevoflurane. The amount of stabilizer agent to achieve its saturation depends on the stabilizer and temperature, and can be high due to the solubility profile among these substances.
Among the appropriate polyalcohols to the stabilization of the fluoroether compound sevoflurane, propylene glycol, polyethylene glycol, hexylene glycol and 1,3-butileneglycol are chosen. […] As cited before, the amount of the stabilizer agent will range from 0.001% in weight until its saturation level in sevoflurane. […] Therefore, in a general way, the polyalcohols are preferably employed in amounts ranging from 0.001% to 5.0% in weight in relation to the weight of sevoflurane.

[5] = Table 4, initial analysis of anhydrous sevoflurane before stress
[6] = Table 6, initial analysis of anhydrous sevoflurane before stress
[7] = anhydrous sevoflurane, stabilizer 0 ppm, 60° C. for 22 hours, 0 mg of Al2O3
[8] = anhydrous sevoflurane, stabilizer 0 ppm, 60° C. for 22 hours, 20 mg of Al2O3
[9] = anhydrous sevoflurane, stabilizer 50 ppm, 60° C. for 22 hours, 0 mg of Al2O3
[10] = anhydrous sevoflurane, stabilizer 50 ppm, 60° C. for 22 hours, 20 mg of Al2O3
[11] = anhydrous sevoflurane, stabilizer 200 ppm, 60° C. for 22 hours, 0 mg of Al2O3
[12] = anhydrous sevoflurane, stabilizer 200 ppm, 60° C. for 22 hours, 20 mg of Al2O3
[13] = anhydrous sevoflurane, stabilizer 600 ppm, 60° C. for 22 hours, 0 mg of Al2O3
[14] = anhydrous sevoflurane, stabilizer 600 ppm, 60° C. for 22 hours, 20 mg of Al2O3
[15] = anhydrous sevoflurane, stabilizer 1000 ppm, 60° C. for 22 hours, 0 mg of Al2O3
[16] = anhydrous sevoflurane, stabilizer 1000 ppm, 60° C. for 22 hours, 20 mg of Al2O3
[17] = anhydrous sevoflurane, stabilizer 1400 ppm, 60° C. for 22 hours, 0 mg of Al2O3
[18] = anhydrous sevoflurane, stabilizer 1400 ppm, 60° C. for 22 hours, 20 mg of Al2O3
[19] = sevoflurane, stabilizer 50 ppm, stress at 60° C. for 12 hours, 0 mg of Al2O3
[20] = sevoflurane, stabilizer 50 ppm, stress at 60° C. for 12 hours, 20 mg of Al2O3
[21] = alumina 1 mg per mL, 60° C. for 22 hours
[22] = Table 4, sevoflurane with 260 ppm stabilizer, alumina 1 mg per mL, 60° C. for 22 hours
[23] = Table 5, sevoflurane with 260 ppm stabilizer, alumina 1 mg per mL, 60° C. for 22 hours
[24] = Table 6, sevoflurane with water 260 ppm or PG + water 260:260 ppm, alumina 1 mg per mL, 60° C. for 22 hours

Compound A [1, 5]: 11.2 µg/g | Purity [1, 5]: 99.9798% | Single impurity [1, 5]: 63.7 µg/g | Total Impurity [1, 5]: 201.8 µg/g | Purity [1, 6]: 99.9907% | Single impurity [1, 6]: 42.1 µg/g | Total impurities [1, 6]: 93.0 µg/g | Limit of fluoride ([2]; Table 5, initial analysis of anhydrous sevoflurane before stress): 0.050 µg/mL | Limit of fluoride [2, 6]: 0.072 µg/mL
Compound: FCOC(C(F)(F)F)C(F)(F)F [Anhydrous Sevoflurane, fluoromethyl 2,2,2-trifluoro-1-(trifluoromethyl)ethyl ether]

HFIP (average ratio area of HFIP/area of toluene) [3, 7]: 0.0408 | Total Impurity (average sum of ratios area of each impurity/area of toluene) [3, 7]: 0.3083 | HFIP (average ratio area of HFIP/area of toluene) [3, 8]: 0.8914 | Total Impurity (average sum of ratios area of each impurity/area of toluene) [3, 8]: 37.5478 | HFIP (average ratio area of HFIP/area of toluene) [3, 9]: 0.04541 | Total Impurity (average sum of ratios area of each impurity/area of toluene) [3, 9]: 0.3174 | HFIP (average ratio area of HFIP/area of toluene) [3, 10]: 0.6402 | Total Impurity (average sum of ratios area of each impurity/area of toluene) [3, 10]: 1.0412 | HFIP (average ratio area of HFIP/area of toluene) [3, 11]: 0.04228 | Total Impurity (average sum of ratios area of each impurity/area of toluene) [3, 11]: 0.2918 | HFIP (average ratio area of HFIP/area of toluene) [3, 12]: 0.5880 | Total Impurity (average sum of ratios area of each impurity/area of toluene) [3, 12]: 1.0773 | HFIP (average ratio area of HFIP/area of toluene) [3, 13]: 0.04445 | Total Impurity (average sum of ratios area of each impurity/area of toluene) [3, 13]: 0.3319 | HFIP (average ratio area of HFIP/area of toluene) [3, 14]: 0.4426 | Total Impurity (average sum of ratios area of each impurity/area of toluene) [3, 14]: 1.0001 | HFIP (average ratio area of HFIP/area of toluene) [3, 15]: 0.04669 | Total Impurity (average sum of ratios area of each impurity/area of toluene) [3, 15]: 0.3627 | HFIP (average ratio area of HFIP/area of toluene) [3, 16]: 0.3787 | Total Impurity (average sum of ratios area of each impurity/area of toluene) [3, 16]: 0.9486 | HFIP (average ratio area of HFIP/area of toluene) [3, 17]: 0.04325 | Total Impurity (average sum of ratios area of each impurity/area of toluene) [3, 17]: 0.3644 | HFIP (average ratio area of HFIP/area of toluene) [3, 18]: 0.3329 | Total Impurity (average sum of ratios area of each impurity/area of toluene) [3, 18]: 1.0156 | saturation level in sevoflurane [4]: about 6.8%
Compound: CC1CCC(C(C)C)C(O)C1 (stereo not drawn) [MENTHOL, (1 alpha, 2 beta, 5 alpha)-5-methyl-2-(1-methylethyl)cyclohexanol]

HFIP (average ratio area of HFIP/area of toluene) [3, 7]: 0.0491 | Total Impurity (average sum of ratios area of each impurity/area of toluene) [3, 7]: 0.3304 | HFIP (average ratio area of HFIP/area of toluene) [3, 8]: 0.6680 | Total Impurity (average sum of ratios area of each impurity/area of toluene) [3, 8]: 31.65 | HFIP (average ratio area of HFIP/area of toluene) [3, 9]: 0 | Total Impurity (average sum of ratios area of each impurity/area of toluene) [3, 9]: 0.3293 | HFIP (average ratio area of HFIP/area of toluene) [3, 10]: 0.05996 | Total Impurity (average sum of ratios area of each impurity/area of toluene) [3, 10]: 0.3925 | HFIP (average ratio area of HFIP/area of toluene) [3, 11]: 0.04474 | Total Impurity (average sum of ratios area of each impurity/area of toluene) [3, 11]: 0.3546 | HFIP (average ratio area of HFIP/area of toluene) [3, 12]: 0.04072 | Total Impurity (average sum of ratios area of each impurity/area of toluene) [3, 12]: 0.2823 | HFIP (average ratio area of HFIP/area of toluene) [3, 13]: 0.04694 | Total Impurity (average sum of ratios area of each impurity/area of toluene) [3, 13]: 0.2925 | HFIP (average ratio area of HFIP/area of toluene) [3, 14]: 0.04603 | Total Impurity (average sum of ratios area of each impurity/area of toluene) [3, 14]: 0.3158 | HFIP (average ratio area of HFIP/area of toluene) [3, 15]: 0.04038 | Total Impurity (average sum of ratios area of each impurity/area of toluene) [3, 15]: 0.3800 | HFIP (average ratio area of HFIP/area of toluene) [3, 16]: 0.04353 | Total Impurity (average sum of ratios area of each impurity/area of toluene) [3, 16]: 0.3189 | HFIP (average ratio area of HFIP/area of toluene) [3, 17]: 0.04159 | Total Impurity (average sum of ratios area of each impurity/area of toluene) [3, 17]: 0.3061 | HFIP (average ratio area of HFIP/area of toluene) [3, 18]: 0.04236 | Total Impurity (average sum of ratios area of each impurity/area of toluene) [3, 18]: 0.3235 | HFIP (average ratio area of HFIP/area of toluene) [3, 19]: 0.00338 | Total Impurity (average sum of ratios area of each impurity/area of toluene) [3, 19]: 0.3236 | HFIP (average ratio area of HFIP/area of toluene) [3, 20]: 0.02051 | Total Impurity (average sum of ratios area of each impurity/area of toluene) [3, 20]: 0.3963 | degradation of sevoflurane by alumina [1, 21]: didn't show any degradation | Compound A [1, 22]: 11.3 µg/g | Purity [1, 22]: 99.9774% | Single impurity [1, 22]: 61.7 µg/g | Total Impurity [1, 22]: 226.3 µg/g | Limit of fluoride [2, 23]: 0.051 µg/mL | saturation level in sevoflurane [4]: around 2.5%
Compound: CC(O)CO (centres unmarked) [Propylene glycol, 1,2-propanediol]

Compound: O [Water]
water content from which degradation of sevoflurane by alumina is inhibited ([3]; Example 2, alumina 1 mg per mL, 60° C.): ≥ 600 ppm | degradation of sevoflurane by alumina ([3]; Example 4, 50 ppm stabilizer, alumina 1 mg per mL): incapable to completely inhibit | increase of impurity HFIP value in relation to the sample without alumina ([3]; sevoflurane containing water, with alumina): about 10 times | degradation of sevoflurane by alumina [1, 21]: didn't inhibit the degradation | Compound A [1, 22]: 11.8 µg/g | Purity [1, 22]: 99.8944% | Single impurity [1, 22]: 403 µg/g | Total Impurity [1, 22]: 1056.1 µg/g | Purity [1, 24]: 99.8899% | Single impurity [1, 24]: 422.8 µg/g | Total impurities [1, 24]: 1101.3 µg/g | Limit of fluoride [2, 23]: 16.950 µg/mL | Limit of fluoride [2, 24]: 15.340 µg/mL

Compound: PEG 400
solubility in sevoflurane [4]: freely soluble
